The subject of this experiment is P388 leukemia ip, CD2F1 mice, survival T/C. Put plainly: NCI In Vivo Anticancer Drug Screen. Data for tumor model P388 Leukemia (intraperitoneal) in CD2F1 (CDF1) mice. Conditions: endpoint: median survival time, higher = longer survival. The method in brief: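 Mice carrying the transplanted tumor received test compound or vehicle. Survival was recorded in each group, and the value is the treated-group measurement divided by that of the vehicle-treated control group.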

Setting [1] is: dose: 50.0 mg/kg/injection, schedule: Q01DX009 (ip), vehicle: saline.
Where [2] appears, read: dose: 50.0 mg/kg/injection, schedule: Q01DX001 (ip), vehicle: saline with Tween-80.
[3] abbreviates: dose: 100.0 mg/kg/injection, schedule: Q01DX001 (ip), vehicle: saline with Tween-80.
[4] abbreviates: dose: 200.0 mg/kg/injection, schedule: Q01DX001 (ip), vehicle: saline with Tween-80.
The mark [5] stands for this setting: dose: 400.0 mg/kg/injection, schedule: Q01DX001 (ip), vehicle: saline with Tween-80.
Setting [6] is: dose: 50.0 mg/kg/injection, schedule: Q01DX005 (ip), vehicle: Klucel (hydroxypropylcellulose) (HPC).
[7] abbreviates: dose: 100.0 mg/kg/injection, schedule: Q01DX005 (ip), vehicle: Klucel (hydroxypropylcellulose) (HPC).
Where [8] appears, read: dose: 200.0 mg/kg/injection, schedule: Q01DX005 (ip), vehicle: Klucel (hydroxypropylcellulose) (HPC).
Setting [9] is: dose: 100.0 mg/kg/injection, schedule: Q01DX009 (ip), vehicle: saline with Tween-80.
Setting [10] is: dose: 200.0 mg/kg/injection, schedule: Q01DX009 (ip), vehicle: saline with Tween-80.
Setting [11] is: dose: 50.0 mg/kg/injection, schedule: Q01DX009 (ip), vehicle: saline with Tween-80.
The mark [12] stands for this setting: dose: 50.0 mg/kg/injection, schedule: Q01DX005 (ip), vehicle: saline.
Where [13] appears, read: dose: 60.0 mg/kg/injection, schedule: Q01DX005 (ip), vehicle: saline with Tween-80.
Setting [14] is: dose: 120.0 mg/kg/injection, schedule: Q01DX005 (ip), vehicle: saline with Tween-80.
[15] abbreviates: dose: 240.0 mg/kg/injection, schedule: Q01DX005 (ip), vehicle: saline with Tween-80.

Several values for one entry are separate records, joined by “and”; a condition that tells them apart may be missing. Identical values can stand only once. Inconclusive results and toxic doses are left out.

With `CC1=NC(C)(CO)CO1` (centres undefined), the T/C under setting [1] is 111 % of control; the T/C (dose: 100.0 mg/kg/injection, schedule: Q01DX009 (ip), vehicle: saline) was 111 % of control; the T/C (dose: 200.0 mg/kg/injection, schedule: Q01DX009 (ip), vehicle: saline) is 108 % of control; the T/C (dose: 400.0 mg/kg/injection, schedule: Q01DX009 (ip), vehicle: saline) is 105 % of control.

Take `Cc1ccc(S(=O)(=O)OC2C=CC(=O)C(OC(=O)c3ccccc3)C2OC(=O)c2ccccc2)cc1` (centres undefined): the T/C under setting [2] was 102 % of control, the T/C under setting [3] was 100 % of control, the T/C under setting [4] is 91 % of control and the T/C under setting [5] was 98 % of control.

For the compound `CCCCCCCCCCCCCCCC(=O)OCC(CO)OC(=O)CCCCCCCCCCCCCCC` (centres undefined), the T/C reads like this: (dose: 50.0 mg/kg/injection, schedule: Q01DX009 (ip), vehicle: Klucel (hydroxypropylcellulose) (HPC)) 91 % of control; (dose: 100.0 mg/kg/injection, schedule: Q01DX009 (ip), vehicle: Klucel (hydroxypropylcellulose) (HPC)) 87 % of control; (dose: 200.0 mg/kg/injection, schedule: Q01DX009 (ip), vehicle: Klucel (hydroxypropylcellulose) (HPC)) 89 % of control.

Take `COc1ccc(C(C2C(=O)CC(C)(C)CC2=O)C2C(=O)CC(C)(C)CC2=O)cc1`: the T/C reads like this: under setting [6], 104 % of control; under setting [7], 101 % of control; under setting [8], 106 % of control.

For `CCOC(=O)C1(NC(=O)Nc2ccccc2)CCCCC1`, the T/C is 100 % of control under setting [6], 98 % of control under setting [7] and 104 % of control under setting [8].

Take `OCC1OC(O)C(N=Cc2ccccc2O)C(O)C1O` (centres undefined): the T/C by setting is: under setting [6], 104 % of control; under setting [7], 104 % of control; under setting [8], 106 % of control.

`Cc1cc(CCN)c(C)c2c1oc1ccccc12`: the T/C is 103 % of control (dose: 25.0 mg/kg/injection, schedule: Q04DX003 (ip), vehicle: Klucel (hydroxypropylcellulose) (HPC)); 99 % of control (dose: 50.0 mg/kg/injection, schedule: Q04DX003 (ip), vehicle: Klucel (hydroxypropylcellulose) (HPC)); 100 % of control (dose: 100.0 mg/kg/injection, schedule: Q04DX003 (ip), vehicle: Klucel (hydroxypropylcellulose) (HPC)); 105 % of control (dose: 200.0 mg/kg/injection, schedule: Q04DX003 (ip), vehicle: Klucel (hydroxypropylcellulose) (HPC)).

Take `COc1c(O)ccc2c1CCCCC2=O`: the T/C under setting [9] is 103 % of control; the T/C under setting [10] is 110 % of control; the T/C (dose: 400.0 mg/kg/injection, schedule: Q01DX009 (ip), vehicle: saline with Tween-80) is 106 % of control.

On to `CN1CCN(C)C1=Nc1ccccc1/C=C/C=C1C(=O)N(C)C(=O)N(C)C1=O`, for which the T/C is, setting by setting: (dose: 25.0 mg/kg/injection, schedule: Q04DX002 (ip), vehicle: saline with Tween-80) 114 % of control; (dose: 50.0 mg/kg/injection, schedule: Q04DX002 (ip), vehicle: saline with Tween-80) 106 % of control; (dose: 100.0 mg/kg/injection, schedule: Q04DX002 (ip), vehicle: saline with Tween-80) 123 % of control.

For the compound `COc1ccc(-c2sc(-c3ccccc3)nc2O)cc1`, the T/C is, setting by setting: under setting [11], 89 % of control; under setting [9], 89 % of control; under setting [10], 92 % of control.

As to `CCN(CC)CCCCCCNc1cc(OC)c(Cl)c2cccnc12`, the T/C is, setting by setting: (dose: 6.25 mg/kg/injection, schedule: Q01DX005 (ip), vehicle: saline) 102 % of control; (dose: 12.5 mg/kg/injection, schedule: Q01DX005 (ip), vehicle: saline) 95 % of control; (dose: 25.0 mg/kg/injection, schedule: Q01DX005 (ip), vehicle: saline) 98 % of control; under setting [12], 115 % of control.

As to `CCOC(=O)C1Cc2c([nH]c(=O)[nH]c2=O)OC1c1ccc(OC)cc1` (centres undefined), the T/C is, setting by setting: under setting [6], 97 % of control; under setting [7], 100 % of control; under setting [8], 97 % of control.

As for `CN(C)CC(CN1CCCC1)C(=O)c1ccccc1` (centres undefined), the T/C was 96 % of control (dose: 3.12 mg/kg/injection, schedule: Q01DX009 (ip), vehicle: saline); 96 % of control (dose: 3.13 mg/kg/injection, schedule: Q01DX009 (ip), vehicle: saline); 99 % of control and 116 % of control (2×) (dose: 6.25 mg/kg/injection, schedule: Q01DX009 (ip), vehicle: saline); 114 % of control (dose: 12.5 mg/kg/injection, schedule: Q01DX009 (ip), vehicle: saline); 112 % of control and 121 % of control and 122 % of control (dose: 25.0 mg/kg/injection, schedule: Q01DX009 (ip), vehicle: saline); 102 % of control under setting [1].

Turning to `O=c1c2cocc2c(O)c2n1Cc1cc3ccccc3nc1-2`, the T/C reads like this: under setting [2], 100 % of control and 101 % of control; under setting [3], 99 % of control and 110 % of control and 120 % of control; under setting [4], 99 % of control and 110 % of control and 120 % of control; under setting [5], 100 % of control and 102 % of control and 112 % of control.

For the compound `CC(=O)OCC12C(=O)CC(C)C3(CC(c4ccoc4)OC3=O)C1(C)CCCC21CO1` (centres undefined) (tested in a mixture with another compound), the T/C reads like this: (dose: 12.0 mg/kg/injection, schedule: Q01DX005 (ip), vehicle: Klucel (hydroxypropylcellulose) (HPC)) 94 % of control; (dose: 24.0 mg/kg/injection, schedule: Q01DX005 (ip), vehicle: Klucel (hydroxypropylcellulose) (HPC)) 92 % of control; (dose: 48.0 mg/kg/injection, schedule: Q01DX005 (ip), vehicle: Klucel (hydroxypropylcellulose) (HPC)) 91 % of control; (dose: 96.0 mg/kg/injection, schedule: Q01DX005 (ip), vehicle: Klucel (hydroxypropylcellulose) (HPC)) 100 % of control.

Regarding `O=c1[nH]c(=O)n(C2CC(O)C(CS)O2)cc1F` (centres undefined), the T/C reads like this: under setting [6], 115 % of control; under setting [8], 150 % of control and 159 % of control; (dose: 400.0 mg/kg/injection, schedule: Q01DX005 (ip), vehicle: Klucel (hydroxypropylcellulose) (HPC)) 186 % of control.

As to `CC1=Nc2cc3ccccc3cc2N(C)/C1=C/C1=C(Cl)C(=O)c2ccccc2C1=O`, the T/C (dose: 12.5 mg/kg/injection, schedule: Q01DX009 (ip), vehicle: saline with Tween-80) is 96 % of control; the T/C (dose: 25.0 mg/kg/injection, schedule: Q01DX009 (ip), vehicle: saline with Tween-80) is 100 % of control; the T/C under setting [11] is 92 % of control and 97 % of control; the T/C under setting [9] is 106 % of control; the T/C under setting [10] was 89 % of control.

As for `CC1=CC(=O)C(O)C2(C)C(CCC3(C)OCCO3)C=C(O[Si](C)(C)C(C)(C)C)CC12` (centres undefined), the T/C by setting is: under setting [13], 96 % of control; under setting [14], 96 % of control; under setting [15], 100 % of control.

For `CON1C(=O)C(c2ccccc2)c2ccccc21` (centres undefined), the T/C is 106 % of control under setting [13], 96 % of control under setting [14] and 96 % of control under setting [15].

`CCN(CC)Cc1cc(Nc2nc(/C=C/c3ccc(Cl)cc3)nc(Cl)c2-c2ccc(Cl)cc2)ccc1O`: the T/C by setting is: (dose: 25.0 mg/kg/injection, schedule: Q01DX001 (ip), vehicle: suspension in saline) 107 % of control; (dose: 50.0 mg/kg/injection, schedule: Q01DX001 (ip), vehicle: suspension in saline) 111 % of control; under setting [12], 111 % of control; (dose: 100.0 mg/kg/injection, schedule: Q01DX001 (ip), vehicle: saline) 103 % of control; (dose: 100.0 mg/kg/injection, schedule: Q01DX001 (ip), vehicle: suspension in saline) 100 % of control and 108 % of control; (dose: 100.0 mg/kg/injection, schedule: Q01DX005 (ip), vehicle: saline) 116 % of control. Also, the T/C is 103 % of control (dose: 200.0 mg/kg/injection, schedule: Q01DX001 (ip), vehicle: saline); 108 % of control and 97 % of control (dose: 200.0 mg/kg/injection, schedule: Q01DX001 (ip), vehicle: suspension in saline); 103 % of control (dose: 200.0 mg/kg/injection, schedule: Q01DX005 (ip), vehicle: saline); 103 % of control (dose: 400.0 mg/kg/injection, schedule: Q01DX001 (ip), vehicle: saline); 108 % of control and 87 % of control (dose: 400.0 mg/kg/injection, schedule: Q01DX001 (ip), vehicle: suspension in saline).

The record behind these values is PubChem BioAssay AID330 (DTP/NCI, 2004).
